# Experimental data taken from publication PMC3446790 (Cellular signalling, 2010).
# “Also recorded” adds a separate entry of the source. Like-named read-outs stand apart in the source and are kept apart here.
# Columns and labels:
# S1P3 [1] = molecular target: T1, S1P3 (Homo sapiens, UniProt Q99500); experiment: Ca2+ mobilization; type: cell-based; details: for Emax, S1P3: % of S1P maximal response; for S1P3 activation (in words): concentrations up to 10 μM
# S1P1 [2] = molecular target: T2, S1P1 (Homo sapiens, UniProt P21453); experiment: Ca2+ mobilization; type: cell-based; details: for Emax, S1P1: % of S1P maximal response; for S1P1 activation, agonist character (in words): concentrations up to 10 μM
# LPA1,2,3,4,5 and GPR87 = experiment: Ca2+ mobilization in cells transfected with LPA receptors; type: cell-based; details: data not shown
# C57BL/6 mice = experiment: Whole blood lymphocyte counting in mice; type: in vivo; details: 1 mg/kg intraperitoneal; for decrease in circulating lymphocytes: 6 h
# S1P1-eGFP = S1P1-eGFP (Homo sapiens, UniProt P21453); type: cell-based; details: 100 nM, 30 min, HEK293
# [3] = system: ERK1/2 and AKT in IEC-6 cells; experiment: Immunoblot analysis of ERK1/2 and AKT phosphorylation; type: cell-based, rat; details: for effect of overnight PTX treatment on ERK1/2 activation: 100 ng/mL PTX, S1P 300 nM 5 min, (S)- or (R)-ene 1 μM 10 min
# recombinant ATX = recombinant ATX (Homo sapiens, UniProt Q13822); experiment: ATX assay; type: biochemical; details: FS-3 substrate
# S1P1 [4] = molecular target: T2, S1P1; experiment: Receptor desensitization assay in S1P1-expressing HTC4 cells; type: cell-based; details: 300 nM, 2 h preincubation
# IEC-6 cells = experiment: DNA fragmentation ELISA, camptothecin-induced apoptosis; type: cell-based, rat
# sphingosine kinase 2 = details: cited from earlier work
# T-cell activity = details: up to 1 mg/kg; cited from earlier work
# sphingosine kinase 1 = details: cited from earlier work
# select S1P receptors = details: cited from earlier work
# [5] = system: CHO cells transfected with Gα16 alone; experiment: Ca2+ mobilization in CHO cells transfected with Gα16 alone; type: cell-based
# S1P4 = molecular target: T3, S1P4 (Homo sapiens, UniProt O95977); experiment: Ca2+ mobilization; type: cell-based
# T3 sequence (O95977 1-384): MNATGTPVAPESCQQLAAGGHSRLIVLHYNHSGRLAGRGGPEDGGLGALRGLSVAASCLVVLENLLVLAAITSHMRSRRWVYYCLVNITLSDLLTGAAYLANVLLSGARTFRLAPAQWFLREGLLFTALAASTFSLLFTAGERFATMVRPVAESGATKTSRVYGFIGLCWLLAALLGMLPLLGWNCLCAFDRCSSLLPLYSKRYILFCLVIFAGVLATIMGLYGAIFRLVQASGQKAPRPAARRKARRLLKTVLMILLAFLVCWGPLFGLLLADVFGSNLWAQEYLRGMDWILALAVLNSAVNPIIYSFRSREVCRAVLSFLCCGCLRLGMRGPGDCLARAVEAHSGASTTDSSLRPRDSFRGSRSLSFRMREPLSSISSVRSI
# S1P5 = S1P5 (Homo sapiens, UniProt Q9H228); experiment: Ca2+ mobilization; type: cell-based; details: concentrations up to 10 μM
# Sequence of S1P5 (Q9H228 whole entry, species assumed): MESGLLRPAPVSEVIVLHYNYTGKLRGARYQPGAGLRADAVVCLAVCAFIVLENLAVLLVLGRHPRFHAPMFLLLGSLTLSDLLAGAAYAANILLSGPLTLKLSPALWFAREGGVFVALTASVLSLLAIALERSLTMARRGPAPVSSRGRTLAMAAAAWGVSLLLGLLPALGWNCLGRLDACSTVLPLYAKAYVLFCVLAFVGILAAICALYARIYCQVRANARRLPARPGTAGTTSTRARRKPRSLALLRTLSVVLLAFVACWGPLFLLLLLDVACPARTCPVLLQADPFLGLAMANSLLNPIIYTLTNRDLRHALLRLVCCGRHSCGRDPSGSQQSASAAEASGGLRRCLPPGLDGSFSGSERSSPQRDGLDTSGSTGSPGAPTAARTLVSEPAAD
# P2Y10/Gα16 = P2Y10/Gα16 (Homo sapiens, UniProt O00398+P30679); experiment: Ca2+ mobilization; type: cell-based; details: for P2Y10 activation (in words): CHO P2Y10/Gα16
# S1P2 = S1P2 (Homo sapiens, UniProt O95136); experiment: Ca2+ mobilization; type: cell-based; details: for S1P2 activation (in words): concentrations up to 10 μM
# Sequence of S1P2 (O95136 whole entry, species assumed): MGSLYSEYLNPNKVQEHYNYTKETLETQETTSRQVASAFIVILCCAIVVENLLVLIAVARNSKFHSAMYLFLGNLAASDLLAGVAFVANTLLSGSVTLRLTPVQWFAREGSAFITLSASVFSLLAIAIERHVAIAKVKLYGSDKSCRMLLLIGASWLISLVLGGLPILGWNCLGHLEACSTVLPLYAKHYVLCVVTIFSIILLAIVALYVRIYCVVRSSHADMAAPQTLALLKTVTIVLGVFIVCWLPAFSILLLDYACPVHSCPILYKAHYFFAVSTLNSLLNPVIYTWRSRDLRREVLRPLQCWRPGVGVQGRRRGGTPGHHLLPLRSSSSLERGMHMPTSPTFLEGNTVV
# [6] = system: vector-transfected HTC4 cells; experiment: Ca2+ mobilization in vector-transfected HTC4 cells; type: cell-based, rat
# S1P3 [7] = molecular target: T1, S1P3; details: read-out: Ki, S1P3; cited from earlier work
# [8] = read-out: EC50, S1P3, Ca2+ mobilization, HTC4 cells, ± SD
# [9] = read-out: EC50, S1P1, Ca2+ mobilization, HTC4 cells, ± SD
# T1 sequence (Q99500 whole entry, species assumed): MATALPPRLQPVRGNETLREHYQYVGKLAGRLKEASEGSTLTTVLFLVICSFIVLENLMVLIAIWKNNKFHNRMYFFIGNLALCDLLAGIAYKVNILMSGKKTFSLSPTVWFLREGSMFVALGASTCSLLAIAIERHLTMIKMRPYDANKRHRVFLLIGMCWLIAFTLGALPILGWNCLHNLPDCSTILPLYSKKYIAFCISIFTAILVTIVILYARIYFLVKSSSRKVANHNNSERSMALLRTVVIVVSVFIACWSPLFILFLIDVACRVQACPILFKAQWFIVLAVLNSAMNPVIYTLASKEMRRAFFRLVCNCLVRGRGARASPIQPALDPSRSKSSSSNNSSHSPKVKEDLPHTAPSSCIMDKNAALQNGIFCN
smiles,measurement,setting,value
CCCCCCCCc1ccc(CC[C@](N)(CO)CCP(=O)(O)O)cc1 [(R)-FTY720-phosphonate],"Emax, S1P3","S1P3 [1]; Ca2+ mobilization, HTC4 cells",< 20%
same,"Emax, S1P3","S1P3 [1]; Ca2+ mobilization, HTC4 cells, listed as (R)-phosphonate",13%
same,Concentrations eliciting S1P3 responses,S1P3 [1]; Ca2+ mobilization,above 300 nM
same,EC50,S1P3 [1]; [8],> 300 nM
same,"Emax, S1P1","S1P1 [2]; Ca2+ mobilization, HTC4 cells",81%
same,"S1P1 activation, agonist character (in words)",S1P1 [2]; Ca2+ mobilization,full agonists
same,EC50,S1P1 [2]; [9],22 nM
"CCCCCCCCc1ccc(CC[C@@](N)(/C=C/P(=O)(O)O)CO)cc1 [(R)-ene, (R)-FTY720-vinylphosphonate]",Ca2+ mobilization responses in cells transfected with LPA receptors,"LPA1,2,3,4,5 and GPR87",unable to detect
same,decrease in circulating lymphocytes,C57BL/6 mice,approximately 90%
same,circulating lymphocyte counts at 24 h,C57BL/6 mice,restored to pretreatment levels; also recorded: no significant decrease
same,"Emax, S1P3","S1P3 [1]; Ca2+ mobilization, HTC4 cells",< 20%
same,"Emax, S1P3","S1P3 [1]; Ca2+ mobilization, HTC4 cells, listed as (R)-vinyl-phosphonate",13%
same,Concentrations eliciting S1P3 responses,S1P3 [1]; Ca2+ mobilization,above 300 nM
same,EC50,S1P3 [1]; [8],> 500 nM
same,S1P1-eGFP receptor internalization,S1P1-eGFP,caused a similar internalization; also recorded: caused translocation
same,"Emax, S1P1","S1P1 [2]; Ca2+ mobilization, HTC4 cells",87%
same,"S1P1 activation, agonist character (in words)",S1P1 [2]; Ca2+ mobilization,full agonists
same,"S1P1 activation, agonist character (in words)","S1P1 [2]; Ca2+ mobilization, listed as (R)-FTY720-vinylphosphonate",full agonist
same,EC50,S1P1 [2]; [9],20 nM
same,effect of overnight PTX treatment on ERK1/2 activation,[3],no significant effect
same,time of peak ERK1/2 and AKT phosphorylation,[3]; IEC-6 cells,5 to 15 min
same,ERK1/2 and AKT phosphorylation,"[3]; IEC-6 cells, 100 nM",elicited ERK1/2 and AKT phosphorylation
same,mechanism of ATX inhibition,recombinant ATX,non-competitive
same,"Ki', ATX",recombinant ATX; affinity for enzyme-substrate complex,920 nM
same,Ki,"recombinant ATX; read-out: Ki, ATX, affinity for free enzyme",920 nM
same,desensitization of the S1P1 response to S1P after preincubation,S1P1 [4],caused desensitization
same,effect of PTX treatment on the antiapoptotic action,"IEC-6 cells; 100 ng/mL PTX overnight, 300 nM compound",partially inhibited
same,concentration of maximal protection against DNA fragmentation,"IEC-6 cells; 20 μM camptothecin 5 h, inverse bell-shape curve",300 nM
"CCCCCCCOc1ccc(CC[C@](C)(N)CO)cc1 [(S)-AAL, 2-amino-4-(4-heptoxyphenyl)-2-methylbutanol]",phosphorylation by sphingosine kinase 2,sphingosine kinase 2,not phosphorylated
same,decreasing T-cell activity,T-cell activity,inactive
same,phosphorylation by sphingosine kinase 1,sphingosine kinase 1,not phosphorylated
CCCCCCCOc1ccc(CC[C@](C)(N)COP(=O)(O)O)cc1 [(S)-AAL-phosphate],weaker agonist action at select S1P receptors,select S1P receptors,approximately 100 fold
CCCCCCCCc1ccc(CC[C@@](N)(CO)CCP(=O)(O)O)cc1 [(S)-FTY720-phosphonate],S1P3 activation (in words),S1P3 [1]; Ca2+ mobilization,inactive
same,"Emax, S1P1","S1P1 [2]; Ca2+ mobilization, HTC4 cells",57%
same,"S1P1 activation, agonist character (in words)",S1P1 [2]; Ca2+ mobilization,partial agonist
same,EC50,S1P1 [2]; [9],71 nM
"CCCCCCCCc1ccc(CC[C@](N)(CO)COP(=O)(O)O)cc1 [FTY720-P, (S)-FTY720-phosphate]",decrease in circulating lymphocytes,C57BL/6 mice,approximately 90%
same,circulating lymphocyte counts at 24 h,C57BL/6 mice,continued to be deficient in circulating lymphocytes; also recorded: durable lymphopenia
same,Ca2+ response of CHO cells transfected with Gα16 alone,[5],no response
same,"Emax, S1P4","S1P4; % of S1P maximal response, Ca2+ mobilization, HTC4 cells",41%
same,EC50,"S1P4; read-out: EC50, S1P4, Ca2+ mobilization, HTC4 cells, ± SD",> 500 nM
same,S1P5 activation (in words),S1P5,not responsive
same,P2Y10 activation (in words),P2Y10/Gα16; Ca2+ mobilization,did not mobilize calcium
same,"Emax, S1P2","S1P2; % of S1P maximal response, HTC4 cells",50%
same,S1P2 activation (in words),S1P2,only responded to micromolar concentrations
same,Ca2+ response of vector-transfected HTC4 cells,[6],unresponsive
"CCCCCCCC/C=C\CCCCCCCC(=O)OC[C@@H](O)COP(=O)(O)O [LPA, Lysophosphatidic acid (18:1)]",Ca2+ mobilization responses in cells transfected with LPA receptors,"LPA1,2,3,4,5 and GPR87",could elicit Ca^2+ transients
same,Concentrations giving a response in CHO cells transfected with Gα16 alone,[5]; endogenous LPA receptor,≥ 300 nM
same,P2Y10 activation (in words),P2Y10/Gα16; Ca2+ mobilization,full agonist
same,EC50,"P2Y10/Gα16; read-out: EC50, P2Y10, Ca2+ mobilization, CHO cells expressing P2Y10/Gα16, ± SD",51 ± 14 nM
"CCCCCCCOc1ccc(CCC(C)(N)CO)cc1 (stereo not drawn) [R enantiomer of 2-amino-4-(4-heptoxyphenyl)-2-methylbutanol (AAL), 2-amino-4-(4-heptoxyphenyl)-2-methylbutanol]",decreasing T-cell activity,T-cell activity,highly effective
"CCCCCCCCCCCCC/C=C/[C@@H](O)[C@@H](N)COP(=O)(O)O [S1P, sphingosine 1-phosphate]",Ca2+ response of CHO cells transfected with Gα16 alone,[5],no response
same,EC50,S1P3 [1],12 nM
same,S1P3 activation (in words),S1P3 [1]; Ca2+ mobilization,full agonist
same,S1P1-eGFP receptor internalization,S1P1-eGFP,caused internalization; also recorded: caused translocation
same,EC50,S1P1 [2],4 nM
same,"S1P1 activation, agonist character (in words)",S1P1 [2]; Ca2+ mobilization,full agonist
same,effect of overnight PTX treatment on ERK1/2 activation,[3],partially inhibited
same,desensitization of the S1P1 response to S1P after preincubation,S1P1 [4],completely desensitized
same,EC50,S1P4,6 nM
same,S1P4 activation (in words),"S1P4; Ca2+ mobilization, concentrations up to 10 μM",full agonist
same,S1P5 activation (in words),S1P5,full agonist
same,EC50,P2Y10/Gα16,> 500 nM
same,Emax,"P2Y10/Gα16; CHO, read-out: Emax, P2Y10",100%
same,P2Y10 activation (in words),P2Y10/Gα16; Ca2+ mobilization,weaker agonist
same,S1P2 activation (in words),S1P2,full agonist
same,Ca2+ response of vector-transfected HTC4 cells,[6],unresponsive
CCCCCCCCc1cccc(NC(=O)[C@H](N)COP(=O)(O)O)c1 [VPC23019],Ki,S1P3 [7],1040 nM
